# Laboratory results as given in patent publication US20260184759A1, “CHIMERIC ANTIGEN RECEPTORS SPECIFIC FOR CONJUGATED BIOTIN” (Seattle Children's Hospital (dba Seattle Children's …, priority 2022, published 2026).
# Experiments:
# [1] = test system: anti-conjugated biotin CARs; experiment: Competition assay against biotin-PEG-Cy5 binding (flow cytometry); design: species or system human; details: 440 nM biotin-PEG-Cy5 with 0.2, 1, 5 or 20 nM competitor, 30 minutes, room temperature
# Description: First, cells expressing various CARs were incubated with 440 nM of biotin-PEG-Cy5 (FIG. 6) for 30 minutes at room temperature. Concurrently, they were exposed to 0 nM (no competition), 0.2 nM, 1 nM, 5 nM, or 20 nM of either unconjugated biotin or a non-fluorescent conjugated biotin (FIG. 7A).
# One differentiating factor for this CAR when compared with other biotin-binding receptors previously described^28,29,31 is that the CAR may bind any biotin derivative but not the unmodified molecule itself (FIG. 2B). To confirm this selective binding to biotin conjugates, the panel of CAR T cells was incubated with 440 nM of a biotin-PEG-Cy5 conjugate, and titrated doses (20 nM, 5 nM, 1 nM, and 0.2 nM) of competition were incubated concurrently with the soluble antigen. Competition included another conjugated biotin, biotin-PEG2k-folate (FIG. 7A), and unmodified biotin (FIG. 7B).
# To confirm anti-biotin CAR T cell binding to conjugated biotin, 440 nM of a 1.1 kDa biotin-PEG-Cy5 (Click Chemistry Tools) conjugate was incubated with the cells for 30 min at room temperature. For the competition assay, 0.2 nM, 1 nM, 5 nM, or 20 nM of either 2 kDa biotin-folate (NanoCS) or unconjugated biotin (Sigma-Adrich) were incubated concurrently with the cells and biotin-PEG-Cy5. Cells were washed and fixed in a 0.5% paraformaldehyde solution. […]
# [2] = test system: anti-conjugated biotin CAR T cells; experiment: ICCS assay with unconjugated biotin added to the co-incubation; type: cell-based, human; details: 0 ng, 100 ng, 500 ng, 2 ug unconjugated biotin during 4-hour co-incubation with labelled targets
# Description: Additionally, unconjugated biotin was added to co-incubating cells for the entire 4-hour co-incubation to determine whether unconjugated biotin can block anti-conjugated biotin binding to target cells. Unconjugated biotin was added at 4 different doses: 0 ng (no competition), 100 ng, 500 ng, and 2 ug. […] The cells were then assessed for production of the intracellular cytokines IFN, IL2, and TNF.
# Cytokine expression and activation/exhaustion markers of anti-biotin CAR T cells stimulated with targets cells were examined by ICCS. Target cells were labeled with appropriate intermediate adaptors and washed. T cells were then co-incubated with labeled and unlabeled target cells at an E:T ratio of 1:1 for 4 hours in the presence of Protein Transport Inhibitor (ThermoFisher Scientific) to block cytokine secretion. Cells were incubated in the appropriate medium for each target line. 100× Cell Stimulation Cocktail (ThermoFisher Scientific) was used as a positive control. An anti-CD107a BV711 antibody (BioLegend) was also included with the cells during the incubation. Cells were then labeled for dead cells using FVS520 live/dead stain (BD Horizon), washed, and subsequently FcR Blocked (Miltenyi Biotec). Surface markers were then stained using anti-CD4 PacBlue(BioLegend), anti-CD8 PerCP/Cy5.5 (Biolegend), and erbitux-APC (BD Biosciences). […]
structure (smiles),measurement,setting,value
"O=C(O)CCCC[C@@H]1SC[C@@H]2NC(=O)N[C@@H]21 [unconjugated biotin, biotin]",MFI of biotin-PEG-Cy5 binding under competition,[1],not negatively impacted in their ability to bind biotin conjugated to fluorescent Cy5
same,MFI of biotin-PEG-Cy5 binding under competition,[1]; listed as unmodified biotin,no decrease in MFI
same,impact of unconjugated biotin on activation markers (CD8+ CAR T cells),[2],no impact on the activation profiles of the CAR T cells
same,impact of unconjugated biotin on intracellular cytokines (CD4+ CAR T cells),[2],no impact on the activation profiles of the CAR T cells
